Data from ChEMBL document CHEMBL3885881, “DrugMatrix”.

Species on record: Rattus norvegicus
Assay: DrugMatrix - Regimen: Daily Repeat
Format: toxicity, organism-based, Sprague-Dawley
Parameters: regimen Daily Repeat, gender Male, age 6-8 weeks
Conditions: in vivo, po, 75 mg/kg, route oral GAVAGE, dose level High, vehicle .5 % CMC; for ABSOLUTE BASOPHIL / ABSOLUTE EOSINOPHIL / ABSOLUTE LYMPHOCYTE / ABSOLUTE MONOCYTE / ABSOLUTE SEGMENTED NEUTROPHIL / BASOPHIL / EOSINOPHIL / ERYTHROCYTE COUNT / HEMATOCRIT / HEMOGLOBIN / LEUKOCYTE COUNT / LYMPHOCYTE / MEAN CORPUSCULAR HEMOGLOBIN / MEAN CORPUSCULAR HEMOGLOBIN CONCENTRATION / MEAN CORPUSCULAR VOLUME / MONOCYTE / NEUTROPHIL / NUCLEATED RED BLOOD CELLS / PLATELET COUNT: tissue Blood; for ALANINE AMINOTRANSFERASE / ALBUMIN / ALKALINE PHOSPHATASE / ASPARTATE AMINOTRANSFERASE / BLOOD UREA NITROGEN / CARBON DIOXIDE / CHLORIDE / CHOLESTEROL / CREATININE / GLUCOSE / LACTATE DEHYDROGENASE / LIPASE / PHOSPHORUS / POTASSIUM / SODIUM / TOTAL BILIRUBIN / TOTAL PROTEIN / URIC ACID: tissue Plasma

Nc1ccc(Cl)cc1 [4-CHLOROANILINE]
ABSOLUTE BASOPHIL (120 h, time 5 day): 0 CELLS/uL
ABSOLUTE EOSINOPHIL (120 h, time 5 day): 666.67 CELLS/uL
ABSOLUTE LYMPHOCYTE (120 h, time 5 day): 19854.67 CELLS/uL
ABSOLUTE MONOCYTE (120 h, time 5 day): 430.67 CELLS/uL
ABSOLUTE SEGMENTED NEUTROPHIL (120 h, time 5 day): 5848 CELLS/uL
BASOPHIL (120 h, time 5 day): 0%
EOSINOPHIL (120 h, time 5 day): 2.33%
ERYTHROCYTE COUNT (120 h, time 5 day): 4.48 x10E6/uL
HEMATOCRIT (120 h, time 5 day): 32.57%
HEMOGLOBIN (120 h, time 5 day): 13.73 G/DL
LEUKOCYTE COUNT (120 h, time 5 day): 26.8 x10E3/uL
LYMPHOCYTE (120 h, time 5 day): 74%
MEAN CORPUSCULAR HEMOGLOBIN (120 h, time 5 day): 30.77 pg
MEAN CORPUSCULAR HEMOGLOBIN CONCENTRATION (120 h, time 5 day): 42.2 G/DL
MEAN CORPUSCULAR VOLUME (120 h, time 5 day): 72.87 fL
MONOCYTE (120 h, time 5 day): 1.67%
NEUTROPHIL (120 h, time 5 day): 22%
NUCLEATED RED BLOOD CELLS (120 h, time 5 day): 1.33 /100WBC
PLATELET COUNT (120 h, time 5 day): 1147 x10E3/uL
ALANINE AMINOTRANSFERASE (120 h, time 5 day): 61.33 u/L
ALBUMIN (120 h, time 5 day): 4.23 G/DL
ALKALINE PHOSPHATASE (120 h, time 5 day): 360.33 u/L
ASPARTATE AMINOTRANSFERASE (120 h, time 5 day): 93.67 u/L
BLOOD UREA NITROGEN (120 h, time 5 day): 13 mg/dL
CARBON DIOXIDE (120 h, time 5 day): 31.33 mmol/L
CHLORIDE (120 h, time 5 day): 102.33 MEQ/L
CHOLESTEROL (120 h, time 5 day): 64.67 mg/dL
CREATININE (120 h, time 5 day): 0.2 mg/dL
GLUCOSE (120 h, time 5 day): 157.33 mg/dL
LACTATE DEHYDROGENASE (120 h, time 5 day): 180.67 u/L
LIPASE (120 h, time 5 day): 9 u/L
PHOSPHORUS (120 h, time 5 day): 11.23 mg/dL
POTASSIUM (120 h, time 5 day): 6.43 MEQ/L
SODIUM (120 h, time 5 day): 148.33 MEQ/L
TOTAL BILIRUBIN (120 h, time 5 day): 0.43 mg/dL
TOTAL PROTEIN (120 h, time 5 day): 6.23 G/DL
URIC ACID (120 h, time 5 day): 1.87 mg/dL
ABSOLUTE BASOPHIL ([…], time 14 day): 0 CELLS/uL
ABSOLUTE EOSINOPHIL ([…], time 14 day): 83.2 CELLS/uL
ABSOLUTE LYMPHOCYTE ([…], time 14 day): 19196.8 CELLS/uL
ABSOLUTE MONOCYTE ([…], time 14 day): 524.8 CELLS/uL
ABSOLUTE SEGMENTED NEUTROPHIL ([…], time 14 day): 2275.2 CELLS/uL
BASOPHIL ([…], time 14 day): 0%
EOSINOPHIL ([…], time 14 day): 0.4%
ERYTHROCYTE COUNT ([…], time 14 day): 3.73 x10E6/uL
HEMATOCRIT ([…], time 14 day): 34.9%
HEMOGLOBIN ([…], time 14 day): 13.26 G/DL
LEUKOCYTE COUNT ([…], time 14 day): 22.08 x10E3/uL
LYMPHOCYTE ([…], time 14 day): 86.8%
MEAN CORPUSCULAR HEMOGLOBIN ([…], time 14 day): 35.82 pg
MEAN CORPUSCULAR HEMOGLOBIN CONCENTRATION ([…], time 14 day): 38.02 G/DL
MEAN CORPUSCULAR VOLUME ([…], time 14 day): 94.18 fL
MONOCYTE ([…], time 14 day): 2.4%
NEUTROPHIL ([…], time 14 day): 10.4%
NUCLEATED RED BLOOD CELLS ([…], time 14 day): 1 /100WBC
PLATELET COUNT ([…], time 14 day): 846.6 x10E3/uL
ALANINE AMINOTRANSFERASE ([…], time 14 day): 56.6 u/L
ALBUMIN ([…], time 14 day): 4.38 G/DL
ALKALINE PHOSPHATASE ([…], time 14 day): 320.6 u/L
ASPARTATE AMINOTRANSFERASE ([…], time 14 day): 128 u/L
BLOOD UREA NITROGEN ([…], time 14 day): 15.4 mg/dL
CARBON DIOXIDE ([…], time 14 day): 29.8 mmol/L
CHLORIDE ([…], time 14 day): 103.2 MEQ/L
CHOLESTEROL ([…], time 14 day): 57 mg/dL
CREATININE ([…], time 14 day): 0.22 mg/dL
GLUCOSE ([…], time 14 day): 123.8 mg/dL
LACTATE DEHYDROGENASE ([…], time 14 day): 440.6 u/L
LIPASE ([…], time 14 day): 9.6 u/L
PHOSPHORUS ([…], time 14 day): 10.5 mg/dL
POTASSIUM ([…], time 14 day): 6.12 MEQ/L
SODIUM ([…], time 14 day): 148.96 MEQ/L
TOTAL BILIRUBIN ([…], time 14 day): 0.54 mg/dL
TOTAL PROTEIN ([…], time 14 day): 6.16 G/DL
URIC ACID ([…], time 14 day): 1.72 mg/dL
